melting point | Structure (SMILES)
122 to 124 °C | COc1ncc(C)cc1Nc1cc2c3c(c1)[C@@H]1CNCC[C@@H]1N3CCOC2 [Example 172, (7bR,11aS)-N-(2-Methoxy-5-methyl-3-pyridinyl)-1,2,7b,8,9,10,11,11a-octahydro-4H-[1,4]oxazepino[6,5,4-hi]pyrido[4,3-b]indole-6-amine]
59 to 68 °C | CCOc1ncc(C)cc1Nc1cc2c3c(c1)[C@@H]1CNCC[C@@H]1N3CCOC2 [Example 173, (7bR,11aS)-N-(2-Ethoxy-5-methyl-3-pyridinyl)-1,2,7b,8,9,10,11,11a-octahydro-4H-[1,4]oxazepino[6,5,4-hi]pyrido[4,3b]indole-6-amine]

Reference: patent US6849619B2, “Substituted pyridoindoles as serotonin agonists and antagonists” (Bristol-Myers Squibb Company, priority 2000, dated 2005)
